Measurements published in patent US12421217B2, “Pyrazine derivative or salt thereof, and use of same” (FUJIFILM Corporation, priority 2019, dated 2025).

Columns and labels:
[1] = tested on: human myeloid leukemia cell line HL60; test: Cell growth test (Cell Titer Glo); format: cell-based; conditions: HL-60, 72 h, HL60 cells, 3 days, read-out: Cell growth inhibitory effect (GI50)
Experimental: The cell growth test was carried out using the human myeloid leukemia cell line HL60 (available from ATCC, CRL-240). As a culture medium of HL60 cells, RPMI 1640 (available from FUJIFILM Wako Pure Chemical Corporation, 189-02025) supplemented with 10% fetal bovine serum (available from Thermo Fisher Scientific, Inc., 10437-028), and 1% penicillin-streptomycin (10,000 U/mL, available from Thermo Fisher Scientific, Inc., 15140-122) was used. HL60 cells were seeded on a 384-well plate (available from Corning Inc., 4588) at a cell density of 1×10^3 cells/20 μL/well. After culturing overnight, 5 μL of the test compound having a predetermined concentration was added, and 3 days later, 25 μL of Cell Titer Glo (registered trademark) Luminescent Cell Viability Assay (available from Promega Corporation, G7573) was added, and then the amount of luminescence was measured using an EnVision plate reader (available from PerkinElmer, Inc.). Since the amount of luminescence is proportional to the intracellular concentration of adenosine triphosphate (ATP), the amount of luminescence was used as an indicator of the number of viable cells. The growth inhibitory concentration for each test compound concentration was calculated by the following expression.
(§1) The growth inhibition rate at each test compound concentration was determined, and the 50% growth inhibitory concentration [GI50 (nmol/L)] was calculated using XLfit. Growth inhibition rate (%)=(amount of luminescence in test compound-added well)/(amount of luminescence in DMSO-added well)×100
The abbreviations in the table have the following meanings. • A: GI50 value<100 nmol/L • B: 100 nmol/L≤GI50 value<1,000 nmol/L • C: 1,000 nmol/L≤GI50 value

[2] = tested on: human acute myeloid leukemia cell line HL60; test: In vivo drug efficacy test in cancer-bearing mouse model with subcutaneous transplantation of HL60; conditions: NOD/scid mice, oral 10 to 30 mg/kg once daily for 10 days
Experimental: (Drug Efficacy Test in Cancer-Bearing Mouse Model with Subcutaneous Transplantation of HL60)
The human acute myeloid leukemia cell line HL60 (available from JCRB) was suspended in a mixture of RPMI-1640 medium and Matrigel (available from Corning Inc.), and then subcutaneously transplanted into 6-week-old female NOD/scid mice (available from CLEA Japan, Inc.). After confirming that the average tumor volume exceeded 200 mm^3, the test compound was dissolved in a solvent (1 equivalent sodium hydroxide solution) and orally administered to mice at a dose of 10 to 30 mg/kg once daily for 10 days. As a negative control, a solvent-administered group to which a 10 to 12 mmol/L sodium hydroxide solution was administered was provided. The tumor diameter was measured over time and the tumor volume was calculated. The tumor volume was calculated by measuring the major axis and the minor axis of the tumor and using the following expression. Tumor volume (mm^3)=[major axis (mm)×minor axis (mm)×minor axis (mm)]/2
T/C (%) was calculated from the average tumor volume of each group by the following expression, and the drug efficacy was evaluated. T/C (%)=(average tumor volume of drug-administered group)/(average tumor volume of solvent-administered group)×100%

recombinant human DHODH = biological target: T1, recombinant human DHODH (Homo sapiens, UniProt Q02127); test: Enzyme reaction inhibition test (DHODH enzyme assay, DCIP quenching); format: biochemical; conditions: DCIP absorbance 600 nm, 50 minutes, read-out: Enzyme reaction inhibitory effect (IC50)
T1 construct: DHODH, 31-395 aa, Human, His tag, E. coli, ATGP1615; His tag; purchased ATGen Co. Ltd. ATGP1615; host or cells: E. coli
Experimental: The DHODH enzyme assay was carried out with reference to “Benjamin Bader, Wolfgang Knecht, Markus Fries, and Monika Loffler. Expression, Purification, and Characterization of Histidine-Tagged Rat and Human Flavoenzyme Dihydroorotate Dehydrogenase. Protein Expression and Purification, 1998, 13, 414-422.”
The DHODH activity was evaluated using an enzyme assay system that is coupled with an assay in which a blue coloring agent 2,6-dichlorophenol indophenol (DCIP, available from MP Biomedicals, LLC, MP150118) is quenched. Purified recombinant human DHODH (DHODH, 31-395 aa, Human, His tag, E. coli, ATGP1615) was purchased from ATGen Co. Ltd. The enzyme assay was carried out in a 384-well plate using a buffer solution containing 100 mmol/L Hepes (available from Dojindo Laboratories, 342-01375), 400 mmol/L NaCl (available from FUJIFILM Wako Pure Chemical Corporation, 191-01665), 10% Glycerol (available from FUJIFILM Wako Pure Chemical Corporation, 075-00616), 0.05% Triton X-100 (available from Sigma-Aldrich Co., LLC, T8787-100ML), 0.2 mmol/L Ubiquinone-10 (available from FUJIFILM Wako Pure Chemical Corporation, 216-00761), 0.1 mmol/L DHO (L-dihydroorotic acid, available from Sigma-Aldrich Co., LLC, D7128), 0.5% DMSO (dimethylsulfoxide, available from FUJIFILM Wako Pure Chemical Corporation, 047-29353), 0.175 μg/mL DHODH, and 0.12 mmol/L DCIP and having a pH adjusted to 8.0 by adding 5 mol/L potassium hydroxide (available from FUJIFILM Wako Pure Chemical Corporation, 168-21815). A test compound with a predetermined concentration was added using Biomek NX (available from Beckman Coulter Inc.), and the enzymatic reaction was started by adding the substrate. The enzyme activity was assessed by measuring the decrease in DCIP absorbance (600 nm) for 50 minutes using an EnVision plate-reading spectrophotometer (available from PerkinElmer, Inc.).
as §1, with “enzyme reaction” for “growth”, “enzyme reaction inhibition” for “growth inhibitory”, “[IC50” for “[GI50”, “Enzyme reaction” for “Growth”
The abbreviations in the table have the following meanings. • A: IC50 value<10 nmol/L • B: 10 nmol/L≤IC50 value<100 nmol/L • C: 100 nmol/L≤IC50 value

T1 sequence (Q02127 31-395): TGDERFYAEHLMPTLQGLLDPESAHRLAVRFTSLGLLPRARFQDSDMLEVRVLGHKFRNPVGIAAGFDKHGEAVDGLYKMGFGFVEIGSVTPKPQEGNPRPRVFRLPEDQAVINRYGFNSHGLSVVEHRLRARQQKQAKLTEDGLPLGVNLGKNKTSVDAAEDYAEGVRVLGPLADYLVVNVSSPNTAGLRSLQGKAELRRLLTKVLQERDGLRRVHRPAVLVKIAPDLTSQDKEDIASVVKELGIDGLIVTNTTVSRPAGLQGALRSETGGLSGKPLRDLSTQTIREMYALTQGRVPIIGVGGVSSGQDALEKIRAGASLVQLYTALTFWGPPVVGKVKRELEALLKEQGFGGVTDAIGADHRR

| Compound | GI50 [1] | tumor growth inhibition rate (T/C) [2] | IC50 (recombinant human DHODH) |
| --- | --- | --- | --- |
| O=C(O)c1nc(C2CC2)cnc1Nc1cccc(C2=CCOCC2)c1OCC(F)(F)F [Example 2, 6-cyclopropyl-3-((3-(3,6-dihydro-2H-pyran-4-yl)-2-(2,2,2-trifluoroethoxy)phenyl)amino)pyrazine-2-carboxylic acid] | < 0.1 µM | excellent tumor growth inhibition rate | < 0.01 µM |
| O=C(O)c1nc(C2CC2)cnc1Nc1cccc(C2CCOCC2)c1OCC(F)(F)F [Example 4, 6-cyclopropyl-3-((3-(tetrahydro-2H-pyran-4-yl)-2-(2,2,2-trifluoroethoxy)phenyl)amino)pyrazine-2-carboxylic acid] | < 0.1 µM | excellent tumor growth inhibition rate | < 0.01 µM |
| C[C@H](Oc1c(Nc2ncc(C3CC3)nc2C(=O)O)cccc1C1=CCOCC1)C(F)(F)F [Example 8, (S)-6-cyclopropyl-3-((3-(3,6-dihydro-2H-pyran-4-yl)-2-((1,1,1-trifluoropropan-2-yl)oxy)phenyl)amino)pyrazine-2-carboxylic acid] | < 0.1 µM | excellent tumor growth inhibition rate | < 0.01 µM |
| C[C@H](Oc1c(Nc2ncc(C3CC3)nc2C(=O)O)cccc1C1CCOCC1)C(F)(F)F [Example 10, (S)-6-cyclopropyl-3-((3-(tetrahydro-2H-pyran-4-yl)-2-((1,1,1-trifluoropropan-2-yl)oxy)phenyl)amino)pyrazine-2-carboxylic acid] | < 0.1 µM | excellent tumor growth inhibition rate | < 0.01 µM |
| CCCc1c(Nc2ncc(C3CC3)nc2C(=O)O)cccc1C1CCOCC1 [Example 13, 6-cyclopropyl-3-((2-propyl-3-(tetrahydro-2H-pyran-4-yl)phenyl)amino)pyrazine-2-carboxylic acid] | < 0.1 µM | excellent tumor growth inhibition rate | 0.01 to 0.1 µM |
